Reference: patent publication US20260242330A1, “USE OF AN AMANTADINE MONONITRATE COMPOUND IN MANUFACTURE OF A MEDICAMENT FOR THE PREVENTION AND TREATMENT OF HYPERTENSION” (GUANGZHOU MAGPIE PHARMACEUTICALS CO., LTD., priority 2022, published 2026)

System: blood pressure of subjects
Test: Effect of multiple administration of MN-08 on blood pressure of subjects (3 days)
Assay type: in vivo, human
Text: All subjects in the following embodiments have signed informed consent forms, which comply with medical ethics regulations. According to the relevant provisions of Chinese Guidelines for the Prevention and Treatment of Hypertension (2018 Revision), the values measured for hypertension are the average blood pressure measured three times on a different day without the use of antihypertensive drugs. Therefore, in this embodiment, the baseline blood pressure of the subjects before administration is set as the average blood pressure measured at three different times: screening period, occupancy period, and 1 hour before administration, as shown in Tables 1 to 3.
Multiple dosing trials: Participants in each dose group fasted for at least 10 hours before administration, without water deprivation overnight. Each group of subjects took the test drug orally on an empty stomach twice a day (with an interval of 12 hours and at least 1 hour on an empty stomach before the second administration). The first administration time every day is around 8 am, taken with 240 mL of water. Taking subjects 15-17 as an example, the effect of multiple doses of MN-08 (3 days) on subjects' blood pressure was investigated.

CCC12CC3CC(N)(C1)CC(CO[N+](=O)[O-])(C3)C2 (stereo not shown) [MN-08]
DP (Subject 15, 12 mg twice a day, D 1, 2 hrs after 2nd adm., baseline 75 mmHg): 59 mmHg | SP (Subject 15, 12 mg twice a day, D 1, 2 hrs after 2nd adm., baseline 108 mmHg): 94 mmHg | DP (Subject 15, 12 mg twice a day, D 1, 4 hrs after 1st adm., baseline 75 mmHg): 61 mmHg | SP (Subject 15, 12 mg twice a day, D 1, 4 hrs after 1st adm., baseline 108 mmHg): 96 mmHg | DP (Subject 15, 12 mg twice a day, D 1, 8 hrs after 1st adm., baseline 75 mmHg): 51 mmHg | SP (Subject 15, 12 mg twice a day, D 1, 8 hrs after 1st adm., baseline 108 mmHg): 100 mmHg | DP (Subject 15, 12 mg twice a day, D 2, 2 hrs after 2nd adm., baseline 75 mmHg): 64 mmHg | SP (Subject 15, 12 mg twice a day, D 2, 2 hrs after 2nd adm., baseline 108 mmHg): 95 mmHg | DP (Subject 15, 12 mg twice a day, D 2, 4 hrs after 1st adm., baseline 75 mmHg): 56 mmHg | SP (Subject 15, 12 mg twice a day, D 2, 4 hrs after 1st adm., baseline 108 mmHg): 92 mmHg | DP (Subject 15, 12 mg twice a day, D 2, 8 hrs after 1st adm., baseline 75 mmHg): 57 mmHg | SP (Subject 15, 12 mg twice a day, D 2, 8 hrs after 1st adm., baseline 108 mmHg): 108 mmHg | DP (Subject 15, 12 mg twice a day, D 3, 2 hrs after 2nd adm., baseline 75 mmHg): 65 mmHg | SP (Subject 15, 12 mg twice a day, D 3, 2 hrs after 2nd adm., baseline 108 mmHg): 105 mmHg | DP (Subject 15, 12 mg twice a day, D 3, 4 hrs after 1st adm., baseline 75 mmHg): 64 mmHg | SP (Subject 15, 12 mg twice a day, D 3, 4 hrs after 1st adm., baseline 108 mmHg): 95 mmHg | DP (Subject 15, 12 mg twice a day, D 3, 8 hrs after 1st adm., baseline 75 mmHg): 57 mmHg | SP (Subject 15, 12 mg twice a day, D 3, 8 hrs after 1st adm., baseline 108 mmHg): 86 mmHg | DP (Subject 16, 24 mg twice a day, D 1, 2 hrs after 2nd adm., baseline 81 mmHg): 66 mmHg | SP (Subject 16, 24 mg twice a day, D 1, 2 hrs after 2nd adm., baseline 118 mmHg): 103 mmHg | DP (Subject 16, 24 mg twice a day, D 1, 4 hrs after 1st adm., baseline 81 mmHg): 61 mmHg | SP (Subject 16, 24 mg twice a day, D 1, 4 hrs after 1st adm., baseline 118 mmHg): 97 mmHg | DP (Subject 16, 24 mg twice a day, D 1, 8 hrs after 1st adm., baseline 81 mmHg): 63 mmHg | SP (Subject 16, 24 mg twice a day, D 1, 8 hrs after 1st adm., baseline 118 mmHg): 102 mmHg | DP (Subject 16, 24 mg twice a day, D 2, 2 hrs after 2nd adm., baseline 81 mmHg): 61 mmHg | SP (Subject 16, 24 mg twice a day, D 2, 2 hrs after 2nd adm., baseline 118 mmHg): 100 mmHg | DP (Subject 16, 24 mg twice a day, D 2, 4 hrs after 1st adm., baseline 81 mmHg): 69 mmHg | SP (Subject 16, 24 mg twice a day, D 2, 4 hrs after 1st adm., baseline 118 mmHg): 106 mmHg | DP (Subject 16, 24 mg twice a day, D 2, 8 hrs after 1st adm., baseline 81 mmHg): 65 mmHg | SP (Subject 16, 24 mg twice a day, D 2, 8 hrs after 1st adm., baseline 118 mmHg): 99 mmHg | DP (Subject 16, 24 mg twice a day, D 3, 2 hrs after 2nd adm., baseline 81 mmHg): 69 mmHg | SP (Subject 16, 24 mg twice a day, D 3, 2 hrs after 2nd adm., baseline 118 mmHg): 98 mmHg | DP (Subject 16, 24 mg twice a day, D 3, 4 hrs after 1st adm., baseline 81 mmHg): 67 mmHg | SP (Subject 16, 24 mg twice a day, D 3, 4 hrs after 1st adm., baseline 118 mmHg): 107 mmHg | DP (Subject 16, 24 mg twice a day, D 3, 8 hrs after 1st adm., baseline 81 mmHg): 63 mmHg | SP (Subject 16, 24 mg twice a day, D 3, 8 hrs after 1st adm., baseline 118 mmHg): 95 mmHg | DP (Subject 17, 24 mg twice a day, D 1, 2 hrs after 2nd adm., baseline 87 mmHg): 73 mmHg | SP (Subject 17, 24 mg twice a day, D 1, 2 hrs after 2nd adm., baseline 126 mmHg): 107 mmHg | DP (Subject 17, 24 mg twice a day, D 1, 4 hrs after 1st adm., baseline 87 mmHg): 81 mmHg | SP (Subject 17, 24 mg twice a day, D 1, 4 hrs after 1st adm., baseline 126 mmHg): 126 mmHg | DP (Subject 17, 24 mg twice a day, D 1, 8 hrs after 1st adm., baseline 87 mmHg): 66 mmHg | SP (Subject 17, 24 mg twice a day, D 1, 8 hrs after 1st adm., baseline 126 mmHg): 112 mmHg | DP (Subject 17, 24 mg twice a day, D 2, 2 hrs after 2nd adm., baseline 87 mmHg): 63 mmHg | SP (Subject 17, 24 mg twice a day, D 2, 2 hrs after 2nd adm., baseline 126 mmHg): 94 mmHg | DP (Subject 17, 24 mg twice a day, D 2, 4 hrs after 1st adm., baseline 87 mmHg): 73 mmHg | SP (Subject 17, 24 mg twice a day, D 2, 4 hrs after 1st adm., baseline 126 mmHg): 102 mmHg | DP (Subject 17, 24 mg twice a day, D 2, 8 hrs after 1st adm., baseline 87 mmHg): 68 mmHg | SP (Subject 17, 24 mg twice a day, D 2, 8 hrs after 1st adm., baseline 126 mmHg): 115 mmHg | DP (Subject 17, 24 mg twice a day, D 3, 2 hrs after 2nd adm., baseline 87 mmHg): 74 mmHg | SP (Subject 17, 24 mg twice a day, D 3, 2 hrs after 2nd adm., baseline 126 mmHg): 110 mmHg | DP (Subject 17, 24 mg twice a day, D 3, 4 hrs after 1st adm., baseline 87 mmHg): 70 mmHg | SP (Subject 17, 24 mg twice a day, D 3, 4 hrs after 1st adm., baseline 126 mmHg): 107 mmHg | DP (Subject 17, 24 mg twice a day, D 3, 8 hrs after 1st adm., baseline 87 mmHg): 76 mmHg | SP (Subject 17, 24 mg twice a day, D 3, 8 hrs after 1st adm., baseline 126 mmHg): 111 mmHg | effect on blood pressure of the subjects (continuous administration for 3 days, twice a day, 12 mg and 24 mg groups, decrease in diastolic greater than in systolic pressure): can lower the blood pressure
